Inconclusive results are not listed. The source made the active and inactive calls.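 How the source made its calls: active means compounds lowering the luciferase signal with a fitted half-maximal dose at most twice their top valid dose (cut at about 30 µM in these data); inconclusive means flat fits with moderate signal loss, or poor fits; inactive means the rest.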

Here are results for 89 molecules from PubChem BioAssay AID743417 (Broad Institute, 2014).

For this assay, the system named is Clone20 osteoblast Shn3 3'UTR firefly luciferase, 24 h. In words: Schnurri-3 3'UTR-luciferase signal suppressors – cell-based, Clone20 osteoblasts, luminescence, dry powder, set 2, dose response (AID 743417).
`O=C(Nc1ccc(-c2nc3ccccc3o2)cc1)c1ccc(N2CCOCC2)c([N+](=O)[O-])c1`: the AC50 is 3.35 µM.

Consider `Cc1cccc(-c2noc(CN(C(=O)C(c3ccccc3)c3ccccc3)C(C)C)n2)c1`, for which the AC50 is 6.27 µM.

With `Cc1ccc(S(=O)(=O)N2CCC3(CC2)OCCN3S(=O)(=O)c2c(C)cc(C)cc2C)cc1`, the AC50 was 6.81 µM.

`CCN1CCN(Cc2ccc(NC(=O)c3ccc(C)c(NC(=O)c4cncc(-c5cccs5)c4)c3)cc2C(F)(F)F)CC1`: the AC50 is 0.808 µM.

In the case of `CC(C)(C)C(=O)NC(=S)NNC(=O)c1sc2ccccc2c1Cl`, the AC50 was 19.1 µM.

Take `CN(C)CCNC(=O)c1ccc(Cl)c2cc3ccccc3nc12`: the AC50 was 9.85 µM.

On to `Cc1c(CCOC(=O)C23CC4(C)CC(C)(CC(C)(C4)C2)C3)sc[n+]1CC(=O)c1ccccc1`, for which the half-maximal activity concentration (AC50) was 5.84 µM.

As to `CC1CN(S(=O)(=O)c2ccc(C(=O)Nc3nc(-c4cc5ccccc5o4)cs3)cc2)CC(C)O1` (centres undefined), the AC50 is less than 0.26 µM.

As to `CCOC(=O)CS(=O)(=O)c1nc(-c2ccc(F)cc2)cc(C(F)(F)F)n1`, the concentration at half-maximal activity (AC50) was 1.78 µM.

Consider `CCOc1cc(/C=C2\CN(CC)C/C(=C\c3ccc(O)c(OCC)c3)C2=O)ccc1O`, for which the concentration at half-maximal activity (AC50) is 2.12 µM.

Turning to `Cc1ccc(S(=O)(=O)N2CCN(c3ncnc4sccc34)CC2)cc1`, the AC50 is 2.72 µM.

On to `C[C@H](O)C#Cc1ccc2c(c1)O[C@@H](CN(C)Cc1ccc(-c3ccccc3)cc1)[C@H](C)CN([C@@H](C)CO)S2(=O)=O`, for which the concentration at half-maximal activity (AC50) was 10.3 µM.

Regarding `CCn1c(=NC(=O)CCS(=O)(=O)c2ccccc2)sc2cccc(OC)c21`, the half-maximal activity concentration (AC50) was 1.28 µM.

For `O=c1oc2ccccc2cc1-c1cn2ccccc2n1`, the AC50 was 3.64 µM.

As to `CC(C)c1ccc(NC(=O)Nc2nc(C(N)C3CCCCC3)cs2)cc1` (centres undefined), the AC50 is 7.29 µM.

On to `O=C(NCc1ccccc1C(F)(F)F)c1cccc2c1C(=O)c1ccc(N3CCC(N4CCCCC4)CC3)cc1S2(=O)=O`, for which the AC50 was 21.2 µM.

On to `Cc1ccccc1NC(=O)CSc1nc2ccccc2c(=O)n1C`, for which the AC50 was 7.64 µM.

Take `CCN(CC)C(=O)C1CCN(S(=O)(=O)c2ccc3oc4ccccc4c3c2)CC1`: the AC50 is 3.96 µM.

In the case of `COc1ccc(S(=O)(=O)N(C)C)cc1NC(=O)C1CCN(c2ncnc3sc(C)c(C)c23)CC1`, the AC50 is 9.21 µM.

In the case of `OC1(c2ccc(OC(F)F)cc2)CSC(=Nc2cccnc2)N1C1CC1` (centres undefined), the AC50 was 5.4 µM.

In the case of `Cc1cc(NNC(=O)c2cccc(C(F)(F)F)c2)nc2c1c(C)nn2C`, the AC50 is 2.43 µM.

Turning to `O=C1C(F)=CC(COC(c2ccccc2)(c2ccccc2)c2ccccc2)OC1n1cc(F)c(=O)[nH]c1=O` (centres undefined), the AC50 was 0.428 µM.

As for `CCOc1cc(/C=C2\C(=O)ON=C2C)ccc1OCc1ccccc1`, the AC50 is 10.4 µM.

`C=C1C(=O)O[C@@H]2C[C@@H](C)[C@@H]3C=CC(=O)[C@@]3(C)[C@@H](OC(=O)CC(=O)O[C@H]3[C@@H]4C(=C)C(=O)O[C@@H]4C[C@@H](C)[C@@H]4C=CC(=O)[C@]43C)[C@H]12`: the AC50 was 0.292 µM.

For `COc1ccccc1N/C(N)=N/c1nc(CSc2ccc(C)cc2)cc(=O)[nH]1`, the AC50 was 2.95 µM.

Consider `Cc1cc(C)c(-c2csc(NC(=O)CCCc3nc4ccccc4c(=O)[nH]3)n2)c(C)c1`, for which the AC50 is 2.97 µM.

In the case of `COc1ccc(C(NC(=O)C(C)C)c2ccc3cccnc3c2O)cc1` (centres undefined), the AC50 is 1.35 µM.

Turning to `CC1=CC2/C=C(\C)CCC(O)C(O)/C=C/C(=O)C23C(=O)NC(CC(C)C)C3C1C` (centres undefined), the AC50 is 5.29 µM.

Consider `CC(=O)N1CCc2c(sc(NC(=O)c3ccc([N+](=O)[O-])o3)c2C(N)=O)C1`, for which the AC50 was 1.85 µM.

For `CC(CC(=O)N1CCN(c2cccc(Cl)c2)CC1)S(=O)(=O)c1ccc2c(c1)NC(=O)CO2` (centres undefined), the AC50 is 3.99 µM.

Take `Cc1ccc([N+](=O)[O-])cc1NC(=O)Nc1cccc(F)c1`: the AC50 was 2.21 µM.

In the case of `CC(C)(C)n1nnnc1C(c1cccs1)N1CCCC2(CCCCC2)C1` (centres undefined), the AC50 is 21.7 µM.

Consider `O=S1(=O)C=C(Sc2nnc(-c3ccccc3)o2)c2ccccc21`, for which the AC50 is 1.7 µM.

Take `COc1ccccc1CNc1nc(NCC2CC2)nc2ccsc12`: the AC50 is 4.16 µM.

For `O=C1[C@H]2[C@@H](c3ccc(F)cc3)N3C(=O)N(c4ccccc4)C(=O)[C@@]3(Cc3ccccc3)[C@H]2C(=O)N1C1CCCCC1`, the AC50 is > 70 µM (inactive).

With `Cc1cccc(Oc2cc(NC(=O)c3ccccc3)cc([N+](=O)[O-])c2)c1`, the AC50 is 3.09 µM.

On to `Cc1ccc(C(=O)Nc2nc(-c3ccccn3)cs2)cc1S(=O)(=O)N1CCOCC1`, for which the AC50 was 0.838 µM.

Take `CC(C)C(=O)NC(c1cccc([N+](=O)[O-])c1)c1ccc2cccnc2c1O` (centres undefined): the AC50 is 2.57 µM.

In the case of `CC1=NOC(=O)/C1=C\c1ccc(-c2ccccc2Br)o1`, the AC50 is 6.48 µM.

Consider `CSc1nc(N)nc2c1ncn2CC(=O)N1CCN(Cc2c(C)cc(C)cc2C)CC1`, for which the AC50 is 0.526 µM.

On to `CC(C)CC(N)c1csc(NC(=O)c2cc(C(C)(C)C)nn2Cc2ccccc2)n1` (centres undefined), for which the half-maximal activity concentration (AC50) was 4.85 µM.

With `COC(=O)c1cn(NC(=O)c2cc([N+](=O)[O-])ccc2F)c(=O)c2ccccc12`, the AC50 was 2.85 µM.

Take `NS(=O)(=O)c1ccc(CCNCc2cc(Cl)ccc2OCc2ccccc2)cc1`: the AC50 was 4.46 µM.

`O[C@@H]1CN(Cc2ccc(-n3cccn3)cc2)CC[C@H]1N1CCN(c2ccccc2F)CC1`: the half-maximal activity concentration (AC50) was 2.13 µM.

On to `O=C(c1ccc(Cl)cc1)C1CCCN(Cc2cccc3ncccc23)C1` (centres undefined), for which the AC50 was 4.52 µM.

`COc1ccc(OCC(O)CNCCOc2ccccc2OC)c(C(C)(C)C)c1` (centres undefined): the AC50 is 11.6 µM.

On to `COc1cc(OC)c(OC)cc1CNC(=O)c1cccc(S(=O)(=O)N2CCc3ccccc3C2)c1`, for which the half-maximal activity concentration (AC50) is 2.39 µM.

As to `COc1ccc(NC(=O)CCOc2cc(C)ccc2C)cc1S(=O)(=O)N1CCCCC1`, the AC50 is 10.4 µM.

On to `COc1ccc(C(=O)NNC(=O)c2cccc(S(=O)(=O)N3CCOCC3)c2)cc1`, for which the AC50 was 23.2 µM.

For the molecule `Cc1ccccc1OCC(O)Cn1c(=N)n(Cc2ccccc2)c2ccccc21` (centres undefined), the concentration at half-maximal activity (AC50) is 2.25 µM.

Consider `Nc1ncnc2c1c(-c1ccc(Oc3ccccc3)cc1)cn2C1CCCC1`, for which the concentration at half-maximal activity (AC50) is 0.658 µM.

On to `COc1ccc(Nc2nc(N3CCCC3)c3ccccc3n2)cc1`, for which the AC50 was 3.67 µM.

Turning to `COc1ccc(CCN2CCC(Nc3nc4ccccc4n3Cc3ccc(F)cc3)CC2)cc1`, the AC50 is 3.03 µM.

`COc1cc2c(cc1OC)C1C(=O)c3ccc4c(c3OC1CO2)CC(C(C)C)O4` (centres undefined): the half-maximal activity concentration (AC50) was less than 0.26 µM.

For the molecule `COc1ccc(OC)c(NC(=O)c2nc(S(=O)(=O)Cc3ccccc3)ncc2Cl)c1`, the AC50 was 2.08 µM.

With `COc1cc(CSc2nnnn2-c2ccc(C)cc2)cc(OC)c1OC`, the AC50 was 1.02 µM.

In the case of `CCCSc1nnc(CSc2nc3ccccc3s2)n1-c1ccccc1`, the concentration at half-maximal activity (AC50) is 7.05 µM.

With `CC[n+]1c(/C=C/Nc2ccccc2)sc2ccccc21`, the AC50 was 2.06 µM.

Consider `CCS(=O)(=O)c1ccc2oc(SCC(=O)N3CCCCC3)nc2c1`, for which the AC50 is > 70 µM (inactive).

Regarding `Cc1cc(C)n2nc(SCC(=O)c3cc(C)n(-c4cc(C)on4)c3C)nc2n1`, the AC50 was 2.46 µM.

On to `O=C1NCCOC(=O)[C@@H](Cc2ccc(F)cc2)CC/C=C/C[C@@H]1CC(=O)N(CCO)Cc1ccccc1`, for which the AC50 is > 70 µM (inactive).

Turning to `Cc1ccc(C(=O)NC2CCCc3c2cnn3-c2ccc(F)cc2F)cn1` (centres undefined), the AC50 was 0.921 µM.

Turning to `Cc1ccc(Nc2c(-c3ccccn3)nc3cccc(C)n23)cc1`, the concentration at half-maximal activity (AC50) is 1.9 µM.

Regarding `O=C(Nc1ccccc1Cc1ccccc1)c1ccccc1NS(=O)(=O)c1ccc(Cl)s1`, the AC50 is 8.18 µM.

`Cc1cc(C(=O)NC2CCCc3c2cnn3-c2cccc(C)c2C)n(C)n1` (centres undefined): the AC50 was less than 0.26 µM.

Consider `O=C(Cn1cnc2ccccc21)Nc1cccc(S(=O)(=O)N2CCCC2)c1`, for which the AC50 was 2.77 µM.

Regarding `Cc1ccc(NS(=O)(=O)c2ccc(C(=O)NC3CCN(Cc4ccccc4)CC3)cc2)cc1`, the AC50 is 4.69 µM.

Take `Cc1ccc(C(=O)Nc2cccc3[nH]c(C(F)(F)F)nc23)cc1`: the AC50 was 3.93 µM.

In the case of `CC(C)C[C@H]1CN=C(N(C)C)N1CC1CCCCCC1`, the AC50 was 5.03 µM.

Take `CCCNC(=O)c1nnsc1S(=O)c1ccc(Cl)cc1` (centres undefined): the AC50 is 1.26 µM.

Regarding `CCN1CCN(Cc2ccc(NC(=O)c3cc(NC(=O)c4cncc(-c5cccs5)c4)cc(OC)c3)cc2C(F)(F)F)CC1`, the AC50 is 9.68 µM.

In the case of `CC1Sc2ccc(S(=O)(=O)N3CCC(C(=O)Nc4cccc(Cl)c4)CC3)cc2NC1=O` (centres undefined), the AC50 was 3.27 µM.

In the case of `CCn1c2ccccc2c2cc(CNCc3ccc(OC)cc3OC)ccc21`, the AC50 is 14.7 µM.

For `CCSc1nnc(NC(=O)c2nc(S(=O)(=O)Cc3ccc(F)cc3)ncc2Cl)s1`, the AC50 is 4.96 µM.

With `CC(C)(C)Nc1nc(-c2ccccn2)nc2ccccc12`, the concentration at half-maximal activity (AC50) was 1.86 µM.

Consider `O=S1(=O)C=C(Sc2nc3cc(Cl)ccc3o2)c2ccccc21`, for which the AC50 is less than 0.26 µM.

Take `COc1ccc(CC(N)c2csc(NC(=O)Nc3ccc(C(C)C)cc3)n2)cc1` (centres undefined): the AC50 was 5.16 µM.

In the case of `Oc1cc(Nc2cccnc2)cc2cccnc12`, the AC50 is 2.12 µM.

Consider `CCc1ccc(O)c(CNCCNCc2cc(CC)ccc2O)c1`, for which the AC50 was 1.38 µM.

With `CCN(CC)Cc1c(O)ccc2c1O/C(=C\C=C\c1ccccc1)C2=O`, the AC50 was 1.96 µM.

As to `COC(=O)C1=C(c2ccc(OCc3ccccc3)cc2)C[C@@H]2CC[C@H]1N2C(=O)NCc1ccc(OC)c(OC)c1`, the AC50 was 19.7 µM.

Turning to `CC(C)(C)C(=O)Nc1cc(S(=O)(=O)N2CCCCC2)ccc1N1CCCCC1`, the AC50 is 23.1 µM.

On to `O=C(c1nnsc1S(=O)c1ccc(Cl)cc1)N1CCOCC1` (centres undefined), for which the AC50 was 0.93 µM.

With `COC(=O)C1=C(c2ccc(-c3ccccc3)c(F)c2)C[C@@H]2CC[C@H]1N2C(=O)N1CCCC1`, the AC50 was 6.06 µM.

For `CC(=O)N1c2ccc(S(=O)(=O)N3CCC(C(=O)N4CCN(c5ccccc5F)CC4)CC3)cc2CC1C` (centres undefined), the AC50 was 5.41 µM.

Consider `C=CC[C@H](CC(=O)N(CCO)Cc1ccccc1)C(=O)NC[C@H](OC(=O)[C@@H](CC=C)Cc1ccc(F)cc1)c1ccccc1`, for which the AC50 was 10.7 µM.

`COc1ccccc1-c1cc(C(F)(F)F)nc(S(=O)(=O)CCCC(=O)NCc2ccc(F)cc2)n1`: the AC50 was 4.43 µM.

In the case of `CC(OC(=O)c1ccc(S(C)(=O)=O)c([N+](=O)[O-])c1)C(=O)NC1C2CC3CC(C2)CC1C3` (centres undefined), the AC50 is 1.4 µM.

Consider `CN(C)c1ccc(/C=C/c2ccc3ccccc3n2)cc1`, for which the AC50 is 1.33 µM.

A word on the AC50: it is the midpoint of the concentration-response curve, whichever way the signal moves.
